Laboratory results reported in patent publication US9309225B2, “N-((1-benzyl-1H-1,2,3-triazol-4-yl)methyl)arylamide compounds as potential anticancer agents and a process for the preparation thereof” (COUNCIL OF SCIENTIFIC & INDUSTRIAL RESEARCH, priority 2013, dated 2016).

What was measured:
[1] = system: TK-10; experiment: NCI sixty human tumor cell line screen, Renal panel; format: cell-based; conditions: TK-10, Renal, NCI protocol
Method: (§1) The in vitro anticancer activity studies for these N-((1-benzyl-1H-1,2,3-triazol-4-yl)methyl) arylamide analogues were carried out at the National Cancer Institute, USA.
(§2) The N-((1-benzyl-1H-1,2,3-triazol-4-yl)methyl)arylamide analogues have been tested at NCI, USA, against sixty human tumor cell lines derived from nine cancer types (leukemia, non-small cell lung cancer, colon cancer, CNS cancer, melanoma cancer, ovarian cancer, renal cancer, prostate cancer and breast cancer). For these compounds results are expressed as growth inhibition (GI50) values as per NCI protocol.

[2] = system: CAKI-1; experiment: as above; format: cell-based; conditions: CAKI-1, Renal, NCI protocol
Method: as §1, §2

[3] = system: ACHN; experiment: as above; format: cell-based; conditions: NCI protocol
Method: as §1, §2

[4] = system: SN12C; experiment: as above; format: cell-based; conditions: NCI protocol
Method: as §1, §2

[5] = system: A498; experiment: as above; format: cell-based; conditions: NCI protocol
Method: as §1, §2

[6] = system: UO-31; experiment: as above; format: cell-based; conditions: UO-31, Renal, NCI protocol
Method: as §1, §2

[7] = system: RXF 393; experiment: as above; format: cell-based; conditions: RXF 393, Renal, NCI protocol
Method: as §1, §2

[8] = system: MDA-MB-31/ATCC; experiment: NCI sixty human tumor cell line screen, Breast panel; format: cell-based; conditions: NCI protocol
Method: as §1, §2

[9] = system: MDA-MB-468; experiment: as above; format: cell-based; conditions: MDA-MB-468, Breast, NCI protocol
Method: as §1, §2

[10] = system: T-47D; experiment: as above; format: cell-based; conditions: T47D, NCI protocol
Method: as §1, §2

[11] = system: BT-549; experiment: as above; format: cell-based; conditions: BT-549, Breast, NCI protocol
Method: as §1, §2

[12] = system: MALME-3M; experiment: NCI sixty human tumor cell line screen, Melanoma panel; format: cell-based; conditions: NCI protocol
Method: as §1, §2

[13] = system: SK-MEL-5; experiment: as above; format: cell-based; conditions: SK-MEL-5, Melanoma, NCI protocol
Method: as §1, §2

[14] = system: MDA-MB-435; experiment: as above; format: cell-based; conditions: MDA-MB-435, Melanoma, NCI protocol
Method: as §1, §2

[15] = system: LOX IMVI; experiment: as above; format: cell-based; conditions: NCI protocol
Method: as §1, §2

[16] = system: SK-MEL-28; experiment: as above; format: cell-based; conditions: SK-MEL-28, Melanoma, NCI protocol
Method: as §1, §2

[17] = system: SK-MEL-2; experiment: as above; format: cell-based; conditions: SK-MEL-2, Melanoma, NCI protocol
Method: as §1, §2

[18] = system: M14; experiment: as above; format: cell-based; conditions: NCI protocol
Method: as §1, §2

[19] = system: UACC-62; experiment: as above; format: cell-based; conditions: UACC-62, Melanoma, NCI protocol
Method: as §1, §2

[20] = system: SF-268; experiment: NCI sixty human tumor cell line screen, CNS panel; format: cell-based; conditions: SF-268, CNS, NCI protocol
Method: as §1, §2

[21] = system: SNB-19; experiment: NCI sixty human tumor cell line screen, CNS panel; format: cell-based; conditions: SNB-19, CNS, NCI protocol
Method: as §1, §2

[22] = system: SNB-75; experiment: NCI sixty human tumor cell line screen, CNS panel; format: cell-based; conditions: SNB-75, CNS, NCI protocol
Method: as §1, §2

[23] = system: U251; experiment: NCI sixty human tumor cell line screen, CNS panel; format: cell-based; conditions: U-251, NCI protocol
Method: as §1, §2

[24] = system: SF-295; experiment: NCI sixty human tumor cell line screen, CNS panel; format: cell-based; conditions: SF-295, CNS, NCI protocol
Method: as §1, §2

[25] = system: SF-539; experiment: NCI sixty human tumor cell line screen, CNS panel; format: cell-based; conditions: SF-539, CNS, NCI protocol
Method: as §1, §2

[26] = system: NCI-H226; experiment: NCI sixty human tumor cell line screen, Non-small-cell-lung panel; format: cell-based; conditions: NCI protocol
Method: as §1, §2

[27] = system: A549/ATCC; experiment: as above; format: cell-based; conditions: NCI protocol
Method: as §1, §2

[28] = system: NCI-H460; experiment: as above; format: cell-based; conditions: NCI protocol
Method: as §1, §2

[29] = system: HOP-62; experiment: as above; format: cell-based; conditions: HOP-62, Non-small-cell-lung, NCI protocol
Method: as §1, §2

[30] = system: EKVX; experiment: as above; format: cell-based; conditions: NCI protocol
Method: as §1, §2

[31] = system: NCI-H522; experiment: as above; format: cell-based; conditions: NCI protocol
Method: as §1, §2

[32] = system: DU-145; experiment: NCI sixty human tumor cell line screen, Prostate panel; format: cell-based; conditions: DU-145, Prostate, NCI protocol
Method: as §1, §2

[33] = system: PC-3; experiment: as above; format: cell-based; conditions: PC-3, Prostate, NCI protocol
Method: as §1, §2

[34] = system: SW-620; experiment: NCI sixty human tumor cell line screen, Colon panel; format: cell-based; conditions: SW-620, Colon, NCI protocol
Method: as §1, §2

[35] = system: HCT-116; experiment: as above; format: cell-based; conditions: HCT-116, Colon, NCI protocol
Method: as §1, §2

[36] = system: HT29; experiment: as above; format: cell-based; conditions: HT-29, NCI protocol
Method: as §1, §2

[37] = system: KM12; experiment: as above; format: cell-based; conditions: NCI protocol
Method: as §1, §2

[38] = system: COLO 205; experiment: as above; format: cell-based; conditions: COLO 205, Colon, NCI protocol
Method: as §1, §2

[39] = system: OVCAR-3; experiment: NCI sixty human tumor cell line screen, Ovarian panel; format: cell-based; conditions: OVCAR-3, Ovarian, NCI protocol
Method: as §1, §2

[40] = system: OVCAR-8; experiment: as above; format: cell-based; conditions: OVCAR-8, Ovarian, NCI protocol
Method: as §1, §2

[41] = system: NCI/ADR-RES; experiment: as above; format: cell-based; conditions: NCI protocol
Method: as §1, §2

[42] = system: SK-OV-3; experiment: as above; format: cell-based; conditions: SK-OV-3, Ovarian, NCI protocol
Method: as §1, §2

[43] = system: OVCAR-4; experiment: as above; format: cell-based; conditions: OVCAR-4, Ovarian, NCI protocol
Method: as §1, §2

COc1cc(Nc2ncccc2C(=O)NCc2cn(Cc3cccc(Oc4ccccc4)c3)nn2)cc(OC)c1 [Compound 1i, 2-(3,5-Dimethoxyphenylamino)-N-((1-(3-phenoxybenzyl)-1H-1,2,3-triazol-4-yl)methyl) nicotinamide]
GI50 [1]: 5.16 µM | GI50 [2]: 6.3 µM | GI50 [3]: 6.9 µM | GI50 [4]: 7.41 µM | GI50 [5]: 4.18 µM | GI50 [6]: 5.25 µM | GI50 [7]: 3.77 µM | GI50 [8]: 5.35 µM | GI50 [9]: 2.42 µM | GI50 [10]: 4.68 µM | GI50 [11]: 7.16 µM | GI50 [12]: 5.81 µM | GI50 [13]: 3.11 µM | GI50 [14]: 2.23 µM | GI50 [15]: 5.1 µM | GI50 [16]: 4.14 µM | GI50 [17]: 6.69 µM | GI50 [18]: 4.8 µM | GI50 [19]: 3.86 µM | GI50 [20]: 5.43 µM | GI50 [21]: 9.64 µM | GI50 [22]: 3.98 µM | GI50 [23]: 4.58 µM | GI50 [24]: 4.06 µM | GI50 [25]: 4.39 µM | melting point: 123 to 125 °C | GI50 [26]: 9.82 µM | GI50 [27]: 4.02 µM | GI50 [28]: 3.98 µM | GI50 [29]: 6.31 µM | GI50 [30]: 6.33 µM | GI50 [31]: 3.31 µM | GI50 [32]: 1.05 µM | GI50 [33]: 4.74 µM | GI50 [34]: 3.88 µM | GI50 [35]: 4.34 µM | GI50 [36]: 3.88 µM | GI50 [37]: 3.84 µM | GI50 [38]: 4.12 µM | GI50 [39]: 3.69 µM | GI50 [40]: 5.96 µM | GI50 [41]: 3.21 µM | GI50 [42]: 4.33 µM | GI50 [43]: 5.42 µM

O=C(NCc1cn(Cc2cccc(Oc3ccccc3)c2)nn1)c1cccnc1Nc1ccc(F)cc1 [Compound 1b, 2-(4-Fluorophenylamino)-N-((1-(3-phenoxybenzyl)-1H-1,2,3-triazol4-yl)methyl)nicotinamide]
GI50 [1]: 4.59 µM | GI50 [2]: 3.41 µM | GI50 [3]: 4.79 µM | GI50 [4]: 4.75 µM | GI50 [5]: 2.35 µM | GI50 [6]: 3 µM | GI50 [7]: 2.59 µM | GI50 [8]: 3.09 µM | GI50 [9]: 2.32 µM | GI50 [10]: 4.03 µM | GI50 [11]: 4.58 µM | GI50 [12]: 15.1 µM | GI50 [13]: 4.48 µM | GI50 [14]: 2.79 µM | GI50 [15]: 61.3 µM | GI50 [16]: 7.98 µM | GI50 [17]: 34.2 µM | GI50 [18]: 13.7 µM | GI50 [19]: 6.51 µM | GI50 [20]: 2.1 µM | GI50 [21]: 20.7 µM | GI50 [22]: 3.81 µM | GI50 [23]: 7.12 µM | GI50 [24]: 5.66 µM | GI50 [25]: 15.1 µM | melting point: 160 to 162 °C | GI50 [26]: 38.6 µM | GI50 [27]: 6.11 µM | GI50 [28]: 5.25 µM | GI50 [29]: 60.2 µM | GI50 [30]: 25.3 µM | GI50 [31]: 10.8 µM | GI50 [32]: 3.76 µM | GI50 [33]: 3.86 µM | GI50 [34]: 6.58 µM | GI50 [35]: 5.02 µM | GI50 [36]: 5.6 µM | GI50 [37]: 5.61 µM | GI50 [38]: 6.22 µM | GI50 [39]: 2.98 µM | GI50 [40]: 3.72 µM | GI50 [41]: 2.12 µM | GI50 [42]: 3.11 µM | GI50 [43]: 5.19 µM

O=C(NCc1cn(Cc2cccc(Oc3ccccc3)c2)nn1)c1cccnc1Nc1ccccc1 [Compound 1a, N-((1-(3-Phenoxybenzyl)-1H-1,2,3-triazol-4-yl)methyl)-2-(phenylamino)nicotinamide]
GI50 [1]: 24.5 µM | GI50 [2]: 64.2 µM | GI50 [3]: 11.1 µM | GI50 [4]: 52.9 µM | GI50 [5]: 13.7 µM | GI50 [6]: 86.3 µM | GI50 [7]: 5.69 µM | GI50 [8]: 14.5 µM | GI50 [9]: 51.7 µM | GI50 [10]: 21.4 µM | GI50 [11]: 45.5 µM | GI50 [13]: 3.89 µM | GI50 [14]: 2.65 µM | GI50 [15]: 4.54 µM | GI50 [16]: 4.93 µM | GI50 [17]: 6.05 µM | GI50 [18]: 2.86 µM | GI50 [19]: 3.02 µM | GI50 [20]: 3.22 µM | GI50 [21]: 3.27 µM | GI50 [22]: 1.94 µM | GI50 [23]: 3.61 µM | GI50 [24]: 3.69 µM | GI50 [25]: 3.1 µM | melting point: 124 to 126 °C | GI50 [26]: 3.24 µM | GI50 [27]: 4.81 µM | GI50 [28]: 2.85 µM | GI50 [29]: 5.58 µM | GI50 [30]: 5.18 µM | GI50 [31]: 2.11 µM | GI50 [32]: 8.58 µM | GI50 [33]: 20.4 µM | GI50 [34]: 3.97 µM | GI50 [35]: 3.4 µM | GI50 [36]: 3.65 µM | GI50 [37]: 3.63 µM | GI50 [38]: 2.79 µM | GI50 [39]: 17.7 µM | GI50 [40]: 7.44 µM | GI50 [41]: 14 µM | GI50 [42]: 5.94 µM | GI50 [43]: 23.4 µM
